Results as given in patent US11667649B2, “Heteroaromatic macrocyclic ether chemotherapeutic agents” (Nuvalent, Inc., priority 2020, dated 2023).

Tested on: TPM3-NTRK1-wt IC50 / primary target (e.g. CD74-ROS1-wt) IC50, Ba/F3 cells
Assay: Cell assay TRKA selectivity (TRKA potency divided by primary target potency)
Assay type: cell-based
Conditions: for TPM3-NTRK1-wt/CD74-ROS1-G2032R: TRKA selectivity ratio: TPM3-NTRK1-wt IC50 / CD74-ROS1-G2032R IC50, Ba/F3 cells; for TPM3-NTRK1-wt/CD74-ROS1-wt: TRKA selectivity ratio: TPM3-NTRK1-wt IC50 / CD74-ROS1-wt IC50, Ba/F3 cells; for TPM3-NTRK1-wt/EML4-ALK-L1196M-G1202R: TRKA selectivity ratio: TPM3-NTRK1-wt IC50 / EML4-ALK-L1196M-G1202R IC50, Ba/F3 cells; for TPM3-NTRK1-wt/EML4-ALK-wt: TRKA selectivity ratio: TPM3-NTRK1-wt IC50 / EML4-ALK-wt IC50, Ba/F3 cells
Summary of the method: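 IL-3-independent Ba/F3 lines stably expressing TPM3-TRKA or the primary fusion (e.g. CD74-ROS1 wt) were exposed to 3-fold compound dilutions for 72 h. Viability was read by CellTiter-Glo luminescence, with IC50 from four-parameter logistic fit. Selectivity is TPM3-NTRK1 IC50 divided by primary-target IC50, binned A (>30-fold) to D (<1).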

`C[C@H]1Oc2cc(cnc2N)-c2c(C#N)noc2Cc2cn(C)nc2-c2ccc(F)cc21` [Example 15, (19R)-22-amino-16-fluoro-10,19-dimethyl-5,20-dioxa-4,10,11,23-tetraazapentacyclo[19.3.1.0^2,^6.0^8,^12.0^13,^18]pentacosa-1(24),2(6),3,8,11,13(18),14,16,21(25),22-decaene-3-carbonitrile] was tested, and the TPM3-NTRK1-wt/CD74-ROS1-G2032R was “A (bin A for very high selectivity, ratio>30-fold)”, the TPM3-NTRK1-wt/CD74-ROS1-wt was “A (bin A for very high selectivity, ratio>30-fold)” and the TPM3-NTRK1-wt/EML4-ALK-L1196M-G1202R was “B (bin B for high selectivity, ratio>10-fold)”. The TPM3-NTRK1-wt/EML4-ALK-wt was “A (bin A for very high selectivity, ratio>30-fold)”.

In the case of `Cn1cc2c(n1)-c1ccc(F)cc1COc1cc(cnc1N)-c1c(cnn1C1CCC1)C2` [Example 7, 3-cyclobutyl-16-fluoro-10-methyl-20-oxa-3,4,10,11,23-pentaazapentacyclo[19.3.1.0^2,^6.0^8,^12.0^13,^18]pentacosa-1(24),2(6),4,8,11,13,15,17,21(25),22-decaen-22-amine], the TPM3-NTRK1-wt/CD74-ROS1-G2032R is reported as “A (bin A for very high selectivity, ratio>30-fold)” and the TPM3-NTRK1-wt/EML4-ALK-L1196M-G1202R is reported as “A (bin A for very high selectivity, ratio>30-fold)”.

In the case of `C[C@H]1Oc2cc(cnc2N)-c2c(C#N)nn(C)c2Cc2ccccc2-c2ccc(F)cc21` [Example 117, (20R)-23-amino-17-fluoro-5,20-dimethyl-21-oxa-4,5,24-triazapentacyclo[20.3.1.0^2,^6.0^8,^13.0^14,^19]hexacosa-1(25),2(6),3,8(13),9,11,14,16,18,22(26),23-undecaene-3-carbonitrile], the TPM3-NTRK1-wt/CD74-ROS1-G2032R is reported as “A (bin A for very high selectivity, ratio>30-fold)”, the TPM3-NTRK1-wt/CD74-ROS1-wt is reported as “A (bin A for very high selectivity, ratio>30-fold)” and the TPM3-NTRK1-wt/EML4-ALK-L1196M-G1202R is reported as “B (bin B for high selectivity, ratio>10-fold)”. The TPM3-NTRK1-wt/EML4-ALK-wt was “A (bin A for very high selectivity, ratio>30-fold)”.

`Cc1nc2c(s1)Cc1nnn(CC3CC3)c1-c1cnc(N)c(c1)O[C@H](C)c1cc(F)ccc1-2` [Example 114, (19R)-3-(cyclopropylmethyl)-16-fluoro-10,19-dimethyl-20-oxa-9-thia-3,4,5,11,23-pentaazapentacyclo[19.3.1.0^2,^6.0^8,^12.0^13,^18]pentacosa-1(24),2(6),4,8(12),10,13,15,17,21(25),22-decaen-22-amine] was tested, and the TPM3-NTRK1-wt/CD74-ROS1-G2032R was “A (bin A for very high selectivity, ratio>30-fold)”, the TPM3-NTRK1-wt/CD74-ROS1-wt was “A (bin A for very high selectivity, ratio>30-fold)” and the TPM3-NTRK1-wt/EML4-ALK-L1196M-G1202R was “A (bin A for very high selectivity, ratio>30-fold)”. For the same molecule, the TPM3-NTRK1-wt/EML4-ALK-wt was “A (bin A for very high selectivity, ratio>30-fold)”.

In the case of `CCn1ncc2c1-c1cnc(N)c(c1)OC(C)c1cc(F)ccc1-n1cncc1C2` (stereo not drawn) [Example 38, 3-ethyl-16-fluoro-19-methyl-20-oxa-3,4,10,12,23-pentaazapentacyclo[19.3.1.0^2,^6.0^8,^12.0^13,^18]pentacosa-1(24),2(6),4,8,10,13,15,17,21(25),22-decaen-22-amine], the TPM3-NTRK1-wt/CD74-ROS1-G2032R is reported as “A (bin A for very high selectivity, ratio>30-fold)”, the TPM3-NTRK1-wt/CD74-ROS1-wt is reported as “A (bin A for very high selectivity, ratio>30-fold)” and the TPM3-NTRK1-wt/EML4-ALK-L1196M-G1202R is reported as “C (bin C for moderate selectivity, ratio≥1)”. The TPM3-NTRK1-wt/EML4-ALK-wt was “B (bin B for high selectivity, ratio>10-fold)”.

With `CCn1cc2c(n1)-c1ccc(F)cc1[C@@H](C)Oc1cc(cnc1N)-c1c(cnn1CC1CC1)C2` [Example 140, (19R)-3-(cyclopropylmethyl)-10-ethyl-16-fluoro-19-methyl-20-oxa-3,4,10,11,23-pentaazapentacyclo[19.3.1.0^2,^6.0^8,^12.0^13,^18]pentacosa-1(24),2(6),4,8,11,13,15,17,21(25),22-decaen-22-amine] the TPM3-NTRK1-wt/CD74-ROS1-G2032R was “A (bin A for very high selectivity, ratio>30-fold)”, the TPM3-NTRK1-wt/CD74-ROS1-wt was “A (bin A for very high selectivity, ratio>30-fold)” and the TPM3-NTRK1-wt/EML4-ALK-L1196M-G1202R was “A (bin A for very high selectivity, ratio>30-fold)”. The TPM3-NTRK1-wt/EML4-ALK-wt was “A (bin A for very high selectivity, ratio>30-fold)”.

`C[C@H]1Oc2cc(cnc2N)-c2c(C#N)nn(C)c2Cc2cc(Cl)nn2-c2ccc(F)cc21` [Example 103, (19R)-22-amino-10-chloro-16-fluoro-5,19-dimethyl-20-oxa-4,5,11,12,23-pentaazapentacyclo[19.3.1.0^2,^6.0^8,^12.0^13,^18]pentacosa-1(24),2(6),3,8,10,13,15,17,21(25),22-decaene-3-carbonitrile] was tested, and the TPM3-NTRK1-wt/CD74-ROS1-G2032R was “A (bin A for very high selectivity, ratio>30-fold)”, the TPM3-NTRK1-wt/CD74-ROS1-wt was “A (bin A for very high selectivity, ratio>30-fold)” and the TPM3-NTRK1-wt/EML4-ALK-L1196M-G1202R was “B (bin B for high selectivity, ratio>10-fold)”. For the same molecule, the TPM3-NTRK1-wt/EML4-ALK-wt was “A (bin A for very high selectivity, ratio>30-fold)”.

In the case of `C[C@H]1Oc2cc(cnc2N)-c2c(cnn2C2CCC2)Cc2cnn(C)c2-c2ccc(F)cc21` [Example 5, (19R)-3-cyclobutyl-16-fluoro-11,19-dimethyl-20-oxa-3,4,10,11,23-pentaazapentacyclo[19.3.1.0^2,^6.0^8,^12.0^13,^18]pentacosa-1(24),2(6),4,8(12),9,13,15,17,21(25),22-decaen-22-amine], the TPM3-NTRK1-wt/CD74-ROS1-G2032R is reported as “A (bin A for very high selectivity, ratio>30-fold)”, the TPM3-NTRK1-wt/CD74-ROS1-wt is reported as “A (bin A for very high selectivity, ratio>30-fold)” and the TPM3-NTRK1-wt/EML4-ALK-L1196M-G1202R is reported as “A (bin A for very high selectivity, ratio>30-fold)”. The TPM3-NTRK1-wt/EML4-ALK-wt was “A (bin A for very high selectivity, ratio>30-fold)”.

For `COc1cc2n(n1)-c1ccc(F)cc1[C@@H](C)Oc1cc(cnc1N)-c1c(nnn1CC1CC1)C2` [Example 144, (19R)-3-(cyclopropylmethyl)-16-fluoro-10-methoxy-19-methyl-20-oxa-3,4,5,11,12,23-hexaazapentacyclo[19.3.1.0^2,^6.0^8,^12.0^13,^18]pentacosa-1(24),2(6),4,8,10,13,15,17,21(25),22-decaen-22-amine], the TPM3-NTRK1-wt/CD74-ROS1-G2032R was “A (bin A for very high selectivity, ratio>30-fold)”, the TPM3-NTRK1-wt/CD74-ROS1-wt was “A (bin A for very high selectivity, ratio>30-fold)” and the TPM3-NTRK1-wt/EML4-ALK-L1196M-G1202R was “B (bin B for high selectivity, ratio>10-fold)”. The TPM3-NTRK1-wt/EML4-ALK-wt was “A (bin A for very high selectivity, ratio>30-fold)”.

With `C[C@H]1Oc2cc(cnc2N)-c2c(C#N)nn(C)c2Cc2cc(C(F)(F)F)nn2-c2ccc(F)cc21` [Example 104, (19R)-22-amino-16-fluoro-5,19-dimethyl-10-(trifluoromethyl)-20-oxa-4,5,11,12,23-pentaazapentacyclo[19.3.1.0^2,^6.0^8,^12.0^13,^18]pentacosa-1(24),2(6),3,8,10,13,15,17,21(25),22-decaene-3-carbonitrile] the TPM3-NTRK1-wt/CD74-ROS1-G2032R was “A (bin A for very high selectivity, ratio>30-fold)”, the TPM3-NTRK1-wt/CD74-ROS1-wt was “A (bin A for very high selectivity, ratio>30-fold)” and the TPM3-NTRK1-wt/EML4-ALK-L1196M-G1202R was “C (bin C for moderate selectivity, ratio≥1)”. For the same molecule, the TPM3-NTRK1-wt/EML4-ALK-wt was “A (bin A for very high selectivity, ratio>30-fold)”.

In the case of `Nc1ncc2cc1OCc1cc(F)ccc1-n1nc(C(F)F)cc1Cc1cnn(CC3CC3)c1-2` [Example 138, 3-(cyclopropylmethyl)-10-(difluoromethyl)-16-fluoro-20-oxa-3,4,11,12,23-pentaazapentacyclo[19.3.1.0^2,^6.0^8,^12.0^13,^18]pentacosa-1(24),2(6),4,8,10,13,15,17,21(25),22-decaen-22-amine], the TPM3-NTRK1-wt/CD74-ROS1-G2032R is reported as “A (bin A for very high selectivity, ratio>30-fold)”, the TPM3-NTRK1-wt/CD74-ROS1-wt is reported as “A (bin A for very high selectivity, ratio>30-fold)” and the TPM3-NTRK1-wt/EML4-ALK-L1196M-G1202R is reported as “A (bin A for very high selectivity, ratio>30-fold)”. The TPM3-NTRK1-wt/EML4-ALK-wt was “A (bin A for very high selectivity, ratio>30-fold)”.

With `CCn1ncc2c1-c1cnc(N)c(c1)O[C@H](C)c1cc(F)ccc1-n1nncc1C2` [Example 43, (19R)-3-ethyl-16-fluoro-19-methyl-20-oxa-3,4,10,11,12,23-hexaazapentacyclo[19.3.1.0^2,^6.0^8,^12.0^13,^18]pentacosa-1(24),2(6),4,8,10,13,15,17,21(25),22-decaen-22-amine] the TPM3-NTRK1-wt/CD74-ROS1-G2032R was “A (bin A for very high selectivity, ratio>30-fold)”, the TPM3-NTRK1-wt/CD74-ROS1-wt was “A (bin A for very high selectivity, ratio>30-fold)” and the TPM3-NTRK1-wt/EML4-ALK-L1196M-G1202R was “C (bin C for moderate selectivity, ratio≥1)”. For the same molecule, the TPM3-NTRK1-wt/EML4-ALK-wt was “B (bin B for high selectivity, ratio>10-fold)”.

`Cc1cc2n(n1)-c1ccc(F)cc1[C@@H](C)Oc1cc(cnc1N)-c1c(C#N)ncn1C2` [Example 61, (19R)-22-amino-16-fluoro-10,19-dimethyl-20-oxa-4,6,11,12,23-pentaazapentacyclo[19.3.1.0^2,^6.0^8,^12.0^13,^18]pentacosa-1(24),2,4,8,10,13,15,17,21(25),22-decaene-3-carbonitrile] was tested, and the TPM3-NTRK1-wt/CD74-ROS1-G2032R was “A (bin A for very high selectivity, ratio>30-fold)”, the TPM3-NTRK1-wt/CD74-ROS1-wt was “A (bin A for very high selectivity, ratio>30-fold)” and the TPM3-NTRK1-wt/EML4-ALK-L1196M-G1202R was “B (bin B for high selectivity, ratio>10-fold)”. The TPM3-NTRK1-wt/EML4-ALK-wt was “A (bin A for very high selectivity, ratio>30-fold)”.

With `CCn1ncc2c1-c1cnc(N)c(c1)O[C@H](C)c1cc(F)ccc1-c1nccn1C2` [Example 31, (19R)-3-ethyl-16-fluoro-19-methyl-20-oxa-3,4,8,11,23-pentaazapentacyclo[19.3.1.0^2,^6.0^8,^12.0^13,^18]pentacosa-1(24),2(6),4,9,11,13,15,17,21(25),22-decaen-22-amine] the TPM3-NTRK1-wt/CD74-ROS1-G2032R was “A (bin A for very high selectivity, ratio>30-fold)”, the TPM3-NTRK1-wt/CD74-ROS1-wt was “A (bin A for very high selectivity, ratio>30-fold)” and the TPM3-NTRK1-wt/EML4-ALK-L1196M-G1202R was “C (bin C for moderate selectivity, ratio≥1)”. For the same molecule, the TPM3-NTRK1-wt/EML4-ALK-wt was “A (bin A for very high selectivity, ratio>30-fold)”.
